# Assay results published in article PMC12077191, “Aeromonas hydrophila RTX adhesin has three ligand-binding domains that give the bacterium the potential to adhere to and aggregate a wide variety of cell types” (mBio, 2025).
# What was measured:
# [1] = molecular target: T1, AhLap RTX adhesin, carbohydrate-binding module (AhLapCBM3) (Aeromonas hydrophila, UniProt A0KNW4); experiment: isothermal titration calorimetry at […] °C; […] also blocks binding to cells; parameters: gene AHA_3491; AhLapCBM3, three-domain construct Asn3455 to Gly3940 (extender domain, split domain and CBM), His-tagged
# [2] = molecular target: T1, AhLap RTX adhesin, carbohydrate-binding module (AhLapCBM3); experiment: printed mammalian glycan array (CFG v5.[…]), GFP fluorescence; parameters: gene AHA_3491; GFP-tagged AhLapCBM3 (Asn3455 to Gly3940)
# [3] = molecular target: T1, AhLap RTX adhesin, carbohydrate-binding module (AhLapCBM3); experiment: isothermal titration calorimetry at […] °C; also glycan array; parameters: gene AHA_3491; AhLapCBM3, three-domain construct Asn3455 to Gly3940 (extender domain, split domain and CBM), His-tagged
structure (smiles),measurement,setting,value
C[C@@H]1OC(O)[C@@H](O)[C@H](O)[C@@H]1O (stereo partly drawn) [L-fucose],Kd,[1],~386 µM
CC(=O)N[C@H]1C(O)O[C@H](CO)[C@@H](O[C@@H]2O[C@H](CO)[C@H](O)[C@H](O)[C@H]2O[C@@H]2O[C@@H](C)[C@@H](O)[C@@H](O)[C@@H]2O)[C@@H]1O[C@@H]1O[C@@H](C)[C@@H](O)[C@@H](O)[C@@H]1O (mixture of isomers) [Lewis Y antigen],"printed mammalian glycan array (CFG v5.4), GFP fluorescence",[2],Strong binding was observed to the Lewis B and Lewis Y antigens
CC(=O)N[C@@H]1[C@@H](O[C@@H]2O[C@H](CO)[C@H](O)[C@H](O)[C@H]2O[C@@H]2O[C@@H](C)[C@@H](O)[C@@H](O)[C@@H]2O)[C@H](O[C@@H]2O[C@@H](C)[C@@H](O)[C@@H](O)[C@@H]2O)[C@@H](CO)O[C@H]1O [Lewis B antigen],Kd,[3],20.8 µM
